Measurements: patent publication US8697683B2, “Azetidinyl diamides as monoacylglycerol lipase inhibitors” (Janssen Pharmaceutica, NV, priority 2009, dated 2014)
Positions count from the first letter of the chain named. Like-named read-outs stand apart in the source and are kept apart here. One block for each molecule: values may come before it.

Legend:
[1] = target: T1, purified wild type MGL (wt-MGLL 6H-11-313) (Homo sapiens, UniProt Q99685)
T1 sequence (Q99685 1-303): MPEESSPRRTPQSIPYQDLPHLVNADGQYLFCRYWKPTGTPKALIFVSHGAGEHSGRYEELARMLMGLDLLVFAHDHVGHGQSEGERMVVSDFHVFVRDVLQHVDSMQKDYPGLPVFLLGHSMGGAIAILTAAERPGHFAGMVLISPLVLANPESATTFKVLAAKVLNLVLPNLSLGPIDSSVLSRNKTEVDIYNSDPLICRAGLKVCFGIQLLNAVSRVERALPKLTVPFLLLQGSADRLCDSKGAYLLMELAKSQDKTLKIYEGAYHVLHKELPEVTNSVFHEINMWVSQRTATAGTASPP

mutant MGL = target: T2, mutant MGL (Homo sapiens, UniProt Q99685, L169S/L176S); assay: MGL ThermoFluor Assay-Mutant
T2 sequence (Q99685 1-303 L169S/L176S): T1 sequence (Q99685 1-303) with L169S, L176S
Method: The ThermoFluor (TF) assay is a 384-well plate-based binding assay that measures thermal stability of proteins^1,2. […] TF dye used in all experiments was 1,8-ANS (Invitrogen: A-47). Final TF assay conditions used for MGL studies were 0.07 mg/ml of mutant MGL, 100 μM ANS, 200 mM NaCl, 0.001% Tween-20 in 50 mM PIPES (pH=7.0).
Screening compound plates contained 100% DMSO compound solutions at a single concentration. […] Columns 12 and 24 were used as DMSO reference and contained no compound. […] Following compound dispension, protein and dye solutions were added to achieve the final assay volume of 3 μL.
Bar-coded assay plates were robotically loaded onto a thermostatically controlled PCR-type thermal block and then heated from 40 to 90° C. degrees at a ramp-rate of 1° C./min for all experiments. Fluorescence was measured by continuous illumination with UV light (Hamamatsu LC6), supplied via fiber optics and filtered through a band-pass filter (380-400 nm; >60D cutoff). Fluorescence emission of the entire 384-well plate was detected by measuring light intensity using a CCD camera (Sensys, Roper Scientific) filtered to detect 500±25 nm, resulting in simultaneous and independent readings of all 384 wells. A single image with 20-sec exposure time was collected at each temperature, and the sum of the pixel intensity in a given area of the assay plate was recorded vs temperature and fit to standard equations to yield the Tm^1. • 1.
For some experiments, quantitative NMR spectroscopy (qNMR) was used to measure concentration of the initial 100% DMSO compound solutions and, using the same fitting method, qKd values were determined

MGL = target: T3, MGL (Rattus norvegicus, UniProt Q8R431); assay: 2-AG Accumulation Assay (rat brain homogenate); format: biochemical; details: percent of vehicle 2-AG accumulation; for Rat Brain 2AG % VehCntrl (%) @1 μM: compound 1 μM
T3 construct: one g rat brain was homogenized
T3 sequence (Q8R431 1-303): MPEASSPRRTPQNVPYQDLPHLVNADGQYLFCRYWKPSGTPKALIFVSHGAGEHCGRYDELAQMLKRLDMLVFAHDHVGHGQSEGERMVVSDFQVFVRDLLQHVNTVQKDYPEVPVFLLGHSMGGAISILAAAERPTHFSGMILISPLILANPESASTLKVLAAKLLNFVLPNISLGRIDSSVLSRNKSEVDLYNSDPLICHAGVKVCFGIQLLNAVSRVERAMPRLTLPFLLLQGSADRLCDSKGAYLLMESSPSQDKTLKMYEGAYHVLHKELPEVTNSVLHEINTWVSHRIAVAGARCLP

[2] = system: CFA-induced thermal hypersensitivity; assay: CFA-Induced Paw Radiant Heat Hypersensitivity; format: in vivo; details: rat, 30 mg/kg p.o., HPβCD vehicle; for Method 1: peak % reversal: group mean values, maximum at any time point up to 180 or 300 min
Method: A radiant thermal stimulus (beam of light) was then focused through the glass onto the plantar surface of each hind paw in turn. […] An initial (baseline) response latency to the thermal stimulus was recorded for each animal prior to the injection of complete Freund's adjuvant (CFA). 24 h following intraplantar CFA injection, the response latency of the animal to the thermal stimulus was then re-evaluated and compared to the animal's baseline response time. […] Immediately following the post-CFA latency assessment, the indicated test compound or vehicle was administered orally. […] More specifically: For all compounds, the % R of hypersensitivity was calculated using the mean value for groups of animals at each time point according to the following formula: % reversal=[(group treatment response−group CFA response)/(group baseline response−group CFA response)]×100 Results are given for the maximum % reversal observed for each compound at any time point tested. For some compounds, the % R of hypersensitivity was calculated separately for each animal according to the following formula: % reversal=[(individual treatment response−individual CFA response)/(individual baseline response−individual CFA response)]×100. Results are given as a mean of the maximum % reversal values calculated for each individual animal.

tactile allodynia = assay: Spinal Nerve Ligation (SNL) Model of Neuropathic Pain-Tactile Allodynia Test; format: in vivo, rat; details: L5 SNL rats, 30 mg/kg p.o., HPβCD vehicle, last time point 4 h
Source text: For lumbar 5 (L5) spinal nerve ligation (SNL) studies, anesthesia was induced and maintained on isoflurane inhalation. Fur was clipped over the dorsal pelvic area, and a 2-cm skin incision was made just left of midline over the dorsal aspect of the L4-S2 spinal segments, followed by separation of the paraspinal muscles from spinous processes. The transverse process of L6 was then carefully removed, and the L5 spinal nerve was identified. The left L5 spinal nerve was then ligated tightly with 6-0 silk thread, the muscle was sutured with 4-0 vicryl, and the skin was closed with wound clips. Following surgery, s.c. saline (5 mL) was administered. Behavioral testing was performed four weeks post-ligation. Following baseline von Frey determinations to verify the presence of mechanical allodynia, L5 SNL rats were orally administered the indicated vehicle or drug. […] which the paw ipsilateral to the nerve ligation was withdrawn from the application of a series of calibrated von Frey filaments (0.4, 0.6, 1.0, 2.0, 4, 6, 8 and 15 g; Stoelting; Wood Dale, Ill.). Beginning at an intermediate stiffness (2.0 g), filaments were applied to the mid-plantar hind paw for approximately 5 seconds. to determine the response threshold, a brisk paw withdrawal led to the presentation of the next lighter stimulus, whereas a lack of a withdrawal response led to the presentation of the next stronger stimulus. A total of four responses after the first threshold detection were collected. The 50% withdrawal thresholds were interpolated by the method of Dixon, Efficient analysis of experimental observations. Annu. Rev. Pharmacol. […] Neurosci. […] Threshold data from von Frey filament testing were reported as withdrawal threshold in grams. Data were normalized and results are presented as % MPE (maximum possible effect) of the drug calculated according to the following formula: [formula]

[3] = read-out: MGL wild type inh IC50, substrate 4MU-B 10 μM, 37° C.
[4] = read-out: MGL mutant ThermoFluor qKd (μM) (using qNMR conc.), ThermoFluor, compound concentration measured by qNMR
[5] = read-out: MGL mutant ThermoFluor Kd, ThermoFluor thermal stability binding assay
[6] = read-out: MGL wild type inh IC50, substrate 4MU-B 10 μM, enzyme 5 nM, 37° C.
[7] = read-out: MGL wild type inh IC50, 4MU-B substrate 10 μM, 37° C.
[8] = read-out: MGL mutant ThermoFluor qKd (μM) (using qNMR conc.), compound concentration measured by quantitative NMR (qNMR)
[9] = read-out: MGL mutant ThermoFluor Kd, 0.07 mg/ml, fit of concentration-response of Tm

Molecule: O=C(c1ccc[nH]1)N1CCN(C2CN(C(=O)c3nn(-c4ccc(Cl)cc4Cl)c4c3CCCC4)C2)CC1 [Cpd 1309]
IC50 [1, 3]: 9360 nM
Kd (mutant MGL; [4]): 6.54 µM

Molecule: O=C(c1ccccc1)N1CC(N2CCN(C(=O)c3cc4cc(Cl)ccc4o3)CC2)C1 [Cpd 524]
IC50 [1, 3]: 4370 nM
Kd (mutant MGL; [5]): 1.67 µM

Molecule: O=C(c1ccccc1)N1CCN(C2CN(C(=O)c3ccc(Oc4cccc(F)n4)cc3)C2)CC1 [Cpd 522]
IC50 [1, 7]: 2680 nM
Kd (mutant MGL; [5]): 4.71 µM

Molecule: O=C(c1ccc(-c2cccc(C(F)(F)F)c2)c(Cl)c1)N1CC(N2CCN(C(=O)c3cscn3)CC2)C1 [Cpd 1102]
Rat Brain 2AG % VehCntrl (%) @1 μM (MGL): 878%
Method 1: peak % reversal [2]: 38%
Method 2: peak % reversal ([2]; mean of individual animal maximum values, up to 180 or 300 min): 45.3%
Kd (mutant MGL; [9]): 0.006 µM

Molecule: 5-[2-(4-Chlorophenyl)-1-methyl-vinyl]-1-(2,4-dichloro-phenyl)-4-methyl-1H-pyrazole-3-carboxylic acid [Cpd 1010]
Rat Brain 2AG % VehCntrl (%) @1 μM (MGL): 1953%
Method 1: peak % reversal [2]: 23.4%
IC50 [1, 3]: < 5 nM
Kd (mutant MGL; [5]): 0.017 µM
Kd (mutant MGL; [4]): 0.04 µM

Molecule: Cc1sc(C(=O)N2CC(N3CCN(C(=O)c4nccs4)CC3)C2)cc1Br [Cpd 745]
IC50 [1, 6]: 342 nM
Kd (mutant MGL; [8]): 0.283 µM

Molecule: COc1cncc(Oc2ccc(C(=O)N3CC(N4CCN(C(=O)c5ccccc5)CC4)C3)cc2)c1 [Cpd 533]
Kd (mutant MGL; [5]): 10 µM

Molecule: COc1ccc(-c2cccc(C(=O)N3CC(N4CCN(C(=O)c5cscn5)CC4)C3)c2)cc1 [Cpd 1250]
IC50 [1, 3]: 638 nM
Kd (mutant MGL; [5]): 2 µM

Molecule: O=C(c1cn2cc(Cl)cc(Br)c2n1)N1CC(N2CCN(C(=O)c3nccs3)CC2)C1 [Cpd 1452]
IC50 [1, 6]: > 16700 nM
Kd (mutant MGL; [8]): 5.42 µM

Molecule: O=C(c1ccccc1)N1CCN(C2CN(C(=O)c3ccc4c(ccn4-c4ccccc4)c3F)C2)CC1 [Cpd 632]
IC50 [1, 3]: 281 nM
Kd (mutant MGL; [4]): 0.037 µM

Molecule: O=C(c1ccccc1)N1CCN(C2CN(C(=O)c3ccc4c(c3)c(F)cn4-c3ccccc3)C2)CC1 [Cpd 589]
IC50 [1, 3]: 146 nM

Molecule: O=C(c1cscn1)N1CCN(C2CN(C(=O)c3sc4cc(C(F)(F)F)ccc4c3Cl)C2)CC1 [Cpd 335, 1-(1-{[3-Chloro-6-(trifluoromethyl)-1-benzothiophen-2-yl]carbonyl}azetidin-3-yl)-4-(1,3-thiazol-4-ylcarbonyl)piperazine]
peak % MPE (tactile allodynia): 50.1%

Molecule: O=C(c1ccccc1)N1CCN(C2CN(C(=O)c3cc4cc(Br)ccc4o3)C2)CC1 [Cpd 1492]
IC50 [1, 6]: > 16700 nM
Kd (mutant MGL; [9]): 18.8 µM

Molecule: Cc1c(C(=O)N2CCN(C3CN(C(=O)c4nccs4)C3)CC2)n(C)c2ccc(Cl)cc12 [Cpd 762]
IC50 [1, 3]: 632 nM
Kd (mutant MGL; [4]): 1 µM

Molecule: O=C(c1ccc(SCc2cccc(C(F)(F)F)c2)cc1)N1CC(N2CCN(C(=O)c3cscn3)CC2)C1 [Cpd 975]
IC50 [1, 7]: 162 nM
Kd (mutant MGL; [5]): 2 µM

Molecule: O=C(c1nccs1)N1CCN(C2CN(C(=O)c3nn(-c4ccc(Cl)cc4Cl)c4c3CCCC4)C2)CC1 [Cpd 1267]
IC50 [1, 3]: 1120 nM
Kd (mutant MGL; [4]): 0.741 µM

Molecule: O=C(c1ccc(-c2ccccc2)cc1)N1CC(N2CCN(C(=O)c3ccccc3)CC23CC3)C1 [Cpd 1499]
IC50 [1, 6]: > 16700 nM

Molecule: O=C(c1ccc(OCc2cccc(Br)n2)cc1)N1CC(N2CCN(C(=O)C(F)(F)F)CC2)C1 [Cpd 984]
IC50 [1, 7]: 2500 nM
Kd (mutant MGL; [4]): 1.43 µM

Molecule: O=C(c1ccc(Oc2cccc(Cl)c2)nc1)N1CC(N2CCN(C(=O)c3cscn3)CC2)C1 [Cpd 803]
IC50 [1, 3]: 1870 nM
Kd (mutant MGL; [5]): 2.13 µM

The next lines start with the values.

IC50 [1, 6]: 8080 nM
Kd (mutant MGL; [4]): 1.98 µM
Molecule: Cc1cc2nc(C(=O)N3CC(N4CCN(C(=O)c5nccs5)CC4)C3)cn2cc1Br [Cpd 852]

IC50 [1, 7]: 460 nM
Kd (mutant MGL; [8]): 0.638 µM
Molecule: Cn1nccc1-c1ccc2cc(C(=O)N3CC(N4CCN(C(=O)c5nccs5)CC4)C3)[nH]c2c1 [Cpd 1241]

IC50 [1, 6]: > 16700 nM
Kd (mutant MGL; [9]): > 31.2 µM
Molecule: O=C(c1nccs1)N1CCN(C2CN(C(=O)c3c[nH]nc3-c3ccccc3)C2)CC1 [Cpd 1475]

IC50 [1, 7]: 2000 nM
Kd (mutant MGL; [9]): 6.41 µM
Molecule: O=C(c1nccs1)N1CCN(C2CN(C(=O)c3cccc4c3CN(c3ccccc3)CC4)C2)CC1 [Cpd 805]

IC50 [1, 7]: 5110 nM
Kd (mutant MGL; [8]): 7.12 µM
Molecule: O=C(c1nc2cc(-c3ccc(OC(F)(F)F)cc3)ccc2[nH]1)N1CC(N2CCN(C(=O)c3nccs3)CC2)C1 [Cpd 1303]

IC50 [1, 6]: 2190 nM
Kd (mutant MGL; [9]): 0.644 µM
Molecule: O=C(c1cc2cc(Br)ccc2o1)N1CC(N2CCN(C(=O)c3nccs3)CC2)C1 [Cpd 812]

IC50 [1, 6]: 8780 nM
Kd (mutant MGL; [5]): 4.21 µM
Molecule: O=C(c1ccc(-c2ccc(Cl)cc2)[nH]1)N1CC(N2CCN(C(=O)c3nccs3)CC2)C1 [Cpd 1307]

Rat Brain 2AG % VehCntrl (%) @1 μM (MGL): 147%
IC50 [1, 7]: 769 nM
Kd (mutant MGL; [9]): 0.048 µM
Molecule: O=C(c1nccs1)N1CCN(C2CN(C(=O)c3cccc4nc(-c5ccccc5)[nH]c34)C2)CC1 [Cpd 1255]

Rat Brain 2AG % VehCntrl (%) @1 μM (MGL): 1336%
Molecule: O=C(c1nccs1)N1CCN(C2CN(C(=O)c3sc4cc(Br)ccc4c3Cl)C2)CC1 [Cpd 326, 1-{1-[(6-Bromo-3-chloro-1-benzothiophen-2-yl)carbonyl]azetidin-3-yl}-4-(1,3-thiazol-2-ylcarbonyl)piperazine]

Rat Brain 2AG % VehCntrl (%) @10 μM (MGL; compound 10 μM): 1026%
Molecule: O=C(c1ccc(-c2ccccc2)cc1)N1CC(N2CCN(C(=O)c3nccs3)CC2)C1 [Cpd 9, 1-[1-(Biphenyl-4-ylcarbonyl)azetidin-3-yl]-4-(1,3-thiazol-2-ylcarbonyl)piperazine]
